# Measurements published in article PMC6134108, “Nystatin-like Pseudonocardia polyene B1, a novel disaccharide-containing antifungal heptaene antibiotic” (Scientific Reports, 2018).
# Read-outs that look alike come from different tables or passages of the source.
# How the values were obtained:
# [1] = tested on: Hep3B cells; experiment: In vitro hepatotoxicity (MTS cell proliferation assay); format: cell-based, human
# Description: (§1) For the minimum inhibitory concentration (MIC) assay, strains for testing were grown on YPD agar for 24 hours, and subcultured to YPD broth medium. Whole strains were incubated for 18 hours at 35 °C by shaking incubator. Grown organisms were diluted with fresh RPMI 1640 medium to appropriate concentration, 5 × 10^4 CFU/ml. Cultures were inoculated to 96-well plates containing antifungal medium. All compounds were dissolved using Dimethyl Sulfoxide (DMSO) and diluted broth media. Fungal diluted solution and antifungal medium were mixed at 1:1 ratio so total 200 ul mixed medium was made. Whole experiment plates were incubated for 24 hours at 37 °C. […] The MICs were calculated in duplicate using the Clinical and Laboratory Standards Institute M27-A3 microbroth methodology. Hemolysis experiments and the 3-(4,5-dimethylthiazol-2-yl)-5-(3-carboxymethoxyphenyl)-2-(4-sulfophenyl)-2H-tetrazolium (MTS) cell proliferation colorimetric assay were performed following known procedures[12],[27],[29].
# [2] = tested on: HepG2 cells; experiment: as above; format: cell-based, human
# Description: as §1
# [3] = tested on: C. albicans; experiment: In vitro antifungal activity against four different C. albicans strains (comparison); format: cell-based, Candida albicans
# Description: as §1
# [4] = tested on: ICR mice; experiment: Single intravenous dose acute toxicity; format: in vivo
# Description: (§2) All in vivo mouse toxicity studies were conducted according to Testing Guidelines for Safety Evaluation of Drugs[32] and the Organisation for Economic Co-operation and Development (OECD) Guideline[33]. Male and female ICR mice were used 7 weeks old for the toxicity test. […] The single doses were 1, 2.5, and 5 mg per kg body weight.
# [5] = Single intravenous dose acute toxicity; format: in vivo, mice; details: ICR, mouse, in vivo, single intravenous administration
# Description: as §2
smiles,measurement,setting,value
"CC(=O)NC1C(OC2C(C)OC(OC3C=CC=CC=CC=CC=CC=CC=CC(C)C(O)C(C)C(C)OC(=O)CC(O)CC(O)CC(O)CCC(O)C(O)CC4(O)CC(O)C(C(=O)O)C(C3)O4)C(O)C2N)OC(CO)C(O)C1O (stereo not drawn) [NPP B1, Nystatin-like Pseudonocardia polyene B1]",in vitro hepatotoxicity compared with AmB,[1],not improved
same,in vitro hepatotoxicity compared with AmB,[2],not improved
same,"antifungal activity, fold lower than amphotericin B",[3],2 fold
same,Deaths on day after start of treatment,"[4]; female, single iv 1mg/kg, day 0",0
same,Deaths on day after start of treatment,"[4]; female, single iv 1mg/kg, day 1",0
same,Deaths on day after start of treatment,"[4]; female, single iv 1mg/kg, day 2",0
same,Deaths on day after start of treatment,"[4]; female, single iv 1mg/kg, day 3",0
same,Deaths on day after start of treatment,"[4]; female, single iv 1mg/kg, day 4",0
same,Deaths on day after start of treatment,"[4]; female, single iv 1mg/kg, day 5",0
same,Deaths on day after start of treatment,"[4]; female, single iv 1mg/kg, day 6",0
same,Deaths on day after start of treatment,"[4]; female, single iv 1mg/kg, day 7",0
same,Deaths on day after start of treatment,"[4]; female, single iv 2.5mg/kg, day 0",1
same,Deaths on day after start of treatment,"[4]; female, single iv 2.5mg/kg, day 1",0
same,Deaths on day after start of treatment,"[4]; female, single iv 2.5mg/kg, day 2",1
same,Deaths on day after start of treatment,"[4]; female, single iv 2.5mg/kg, day 3",0
same,Deaths on day after start of treatment,"[4]; female, single iv 2.5mg/kg, day 4",0
same,Deaths on day after start of treatment,"[4]; female, single iv 2.5mg/kg, day 5",0
same,Deaths on day after start of treatment,"[4]; female, single iv 2.5mg/kg, day 6",0
same,Deaths on day after start of treatment,"[4]; female, single iv 2.5mg/kg, day 7",0
same,Deaths on day after start of treatment,"[4]; female, single iv 5mg/kg, day 0",3
same,Deaths on day after start of treatment,"[4]; female, single iv 5mg/kg, day 1",2
same,Deaths on day after start of treatment,"[4]; female, single iv 5mg/kg, day 2",0
same,Deaths on day after start of treatment,"[4]; female, single iv 5mg/kg, day 3",0
same,Deaths on day after start of treatment,"[4]; female, single iv 5mg/kg, day 4",0
same,Deaths on day after start of treatment,"[4]; female, single iv 5mg/kg, day 5",0
same,Deaths on day after start of treatment,"[4]; female, single iv 5mg/kg, day 6",0
same,Deaths on day after start of treatment,"[4]; female, single iv 5mg/kg, day 7",0
same,Deaths on day after start of treatment,"[4]; male, single iv 1mg/kg, day 0",0
same,Deaths on day after start of treatment,"[4]; male, single iv 1mg/kg, day 1",0
same,Deaths on day after start of treatment,"[4]; male, single iv 1mg/kg, day 2",0
same,Deaths on day after start of treatment,"[4]; male, single iv 1mg/kg, day 3",0
same,Deaths on day after start of treatment,"[4]; male, single iv 1mg/kg, day 4",0
same,Deaths on day after start of treatment,"[4]; male, single iv 1mg/kg, day 5",0
same,Deaths on day after start of treatment,"[4]; male, single iv 1mg/kg, day 6",0
same,Deaths on day after start of treatment,"[4]; male, single iv 1mg/kg, day 7",0
same,Deaths on day after start of treatment,"[4]; male, single iv 2.5mg/kg, day 0",1
same,Deaths on day after start of treatment,"[4]; male, single iv 2.5mg/kg, day 1",0
same,Deaths on day after start of treatment,"[4]; male, single iv 2.5mg/kg, day 2",1
same,Deaths on day after start of treatment,"[4]; male, single iv 2.5mg/kg, day 3",0
same,Deaths on day after start of treatment,"[4]; male, single iv 2.5mg/kg, day 4",0
same,Deaths on day after start of treatment,"[4]; male, single iv 2.5mg/kg, day 5",0
same,Deaths on day after start of treatment,"[4]; male, single iv 2.5mg/kg, day 6",0
same,Deaths on day after start of treatment,"[4]; male, single iv 2.5mg/kg, day 7",0
same,Deaths on day after start of treatment,"[4]; male, single iv 5mg/kg, day 0",4
same,Deaths on day after start of treatment,"[4]; male, single iv 5mg/kg, day 1",0
same,Deaths on day after start of treatment,"[4]; male, single iv 5mg/kg, day 2",1
same,Deaths on day after start of treatment,"[4]; male, single iv 5mg/kg, day 3",0
same,Deaths on day after start of treatment,"[4]; male, single iv 5mg/kg, day 4",0
same,Deaths on day after start of treatment,"[4]; male, single iv 5mg/kg, day 5",0
same,Deaths on day after start of treatment,"[4]; male, single iv 5mg/kg, day 6",0
same,Deaths on day after start of treatment,"[4]; male, single iv 5mg/kg, day 7",0
same,LD50 at 7 days,"[5]; female mice, read-out: median lethal dose (LD50)",2.95 mg/kg
same,LD50 at 7 days,"[5]; male mice, read-out: median lethal dose (LD50)",2.95 mg/kg
same,LD50 at 7 days,"[5]; both sexes, mice, read-out: LD50, median lethal dose (dose causing 50% mortality)",2.95 mg/kg
